Test results from patent publication US20220323406A1, “METHODS AND COMPOSITIONS FOR DIFFERENTIATING STEM CELLS” (Massachusetts Institute of Technology, priority 2019, published 2022).

Key:
[1] = tested on: ENR+CD organoids (ISC to Paneth cell differentiation); assay: Primary screen: basal (non-stimulated) lysozyme secretion LYZ.NS, 2.5-D 384-well ENR+CD organoid differentiation; format: cell-based, mouse
Source text: (§1) High-throughput screening.

[2] = tested on: ENR+CD organoids (ISC to Paneth cell differentiation); assay: Primary screen: CCh-stimulated lysozyme secretion LYZ.S, 2.5-D 384-well ENR+CD organoid differentiation; format: cell-based, mouse; settings: primary screen
Source text: as §1

[3] = tested on: ENR+CD organoids; assay: Primary screen: ATP (CellTiter-Glo 3D, CTG) cell number/viability, 2.5-D 384-well ENR+CD organoids; settings: primary screen; for Z.CTG: standard z score;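 on all read-outs here: compounds given at plating and again on day 3 over a 6-day differentiation from ENR+CV stem-cell-enriched precursors, ATP measured on day 6, plate median as control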
[4] = primary screen, dose 0.08 uM, standard z score
[5] = primary screen, dose 0.40 uM, standard z score
[6] = primary screen, dose 2.00 uM, standard z score
[7] = primary screen, dose 10.00 uM, standard z score
[8] = dose 0.08 uM, FC vs plate median
[9] = dose 0.40 uM, FC vs plate median
[10] = dose 2.00 uM, FC vs plate median
[11] = dose 10.00 uM, FC vs plate median
[12] = primary screen, standard z score, dose 0.08 uM
[13] = primary screen, standard z score, dose 0.40 uM
[14] = primary screen, standard z score, dose 2.00 uM
[15] = primary screen, standard z score, dose 10.00 uM
[16] = dose 0.08 uM, FC relative to plate median
[17] = dose 0.40 uM, FC relative to plate median
[18] = dose 2.00 uM, FC relative to plate median
[19] = dose 10.00 uM, FC relative to plate median

Row | SMILES | Dose.FC.LYZ.NS ([1]; primary screen, dose 0.08 uM) [log2 fold change] | Z.LYZ.NS (standard z score) ([1]; primary screen, dose 0.08 uM) | Dose.FC.LYZ.NS ([1]; primary screen, dose 0.40 uM) [log2 fold change] | Z.LYZ.NS (standard z score) ([1]; primary screen, dose 0.40 uM) | Dose.FC.LYZ.NS ([1]; primary screen, dose 2.00 uM) [log2 fold change] | Z.LYZ.NS (standard z score) ([1]; primary screen, dose 2.00 uM) | Dose.FC.LYZ.NS ([1]; primary screen, dose 10.00 uM) [log2 fold change] | Z.LYZ.NS (standard z score) ([1]; primary screen, dose 10.00 uM) | Dose.FC.LYZ.S ([2]; dose 0.08 uM) [log2 fold change] | Dose.FC.LYZ.S ([2]; dose 0.40 uM) [log2 fold change] | Dose.FC.LYZ.S ([2]; dose 2.00 uM) [log2 fold change] | Dose.FC.LYZ.S ([2]; dose 10.00 uM) [log2 fold change] | Dose.FC.CTG ([3]; dose 0.08 uM) [log2 fold change] | Dose.FC.CTG ([3]; dose 0.40 uM) [log2 fold change] | Dose.FC.CTG ([3]; dose 2.00 uM) [log2 fold change] | Dose.FC.CTG ([3]; dose 10.00 uM) [log2 fold change] | Z.LYZ.NS [1, 4] | Z.LYZ.NS [1, 5] | Z.LYZ.NS [1, 6] | Z.LYZ.NS [1, 7] | further results
1 | COc1ccc2cccc(CCNC(C)=O)c2c1 [Agomelatine] | 0.026 | 0.227 | 0.080 | 0.695 | 0.069 | 0.597 | −0.033 | −0.285 | 0.090 | 0.132 | −0.037 | 0.008 | 0.106 | 0.081 | −0.198 | 0.024 |  |  |  |  | 
2 | COc1ccc2cc([C@H](C)C(=O)O)ccc2c1 [Naproxen] |  |  |  |  |  |  |  |  |  |  |  |  |  |  |  |  | 1.226 | 0.930 | −0.698 | −1.064 | Dose.FC.LYZ.NS ([1]; primary screen; dose 0.08 uM; FC vs plate median): 0.141 log2 fold change; Dose.FC.LYZ.NS ([1]; primary screen; dose 0.40 uM; FC vs plate median): 0.107 log2 fold change; Dose.FC.LYZ.NS ([1]; primary screen; dose 2.00 uM; FC vs plate median): −0.080 log2 fold change; Dose.FC.LYZ.NS ([1]; primary screen; dose 10.00 uM; FC vs plate median): −0.122 log2 fold change; Dose.FC.LYZ.S [2, 8]: 0.067 log2 fold change; Dose.FC.LYZ.S [2, 9]: 0.057 log2 fold change; Dose.FC.LYZ.S [2, 10]: −0.215 log2 fold change; Dose.FC.LYZ.S [2, 11]: −0.215 log2 fold change; Dose.FC.CTG [3, 8]: −0.098 log2 fold change; Dose.FC.CTG [3, 9]: −0.068 log2 fold change; Dose.FC.CTG [3, 10]: −0.588 log2 fold change; Dose.FC.CTG [3, 11]: −1.282 log2 fold change
3 | CCCCCCCCCCCC1=C(O)C(=O)C=C(O)C1=O [Embelin] | −0.015 |  | −0.082 |  | −0.055 |  | −0.094 |  | −0.034 | −0.122 | −0.111 | −0.119 | −0.323 | −0.723 | −0.325 | −0.720 |  |  |  |  | Z.LYZ.NS [1, 12]: −0.129; Z.LYZ.NS [1, 13]: −0.712; Z.LYZ.NS [1, 14]: −0.482; Z.LYZ.NS [1, 15]: −0.819
4 | N#CSc1cc(SC#N)c(N)nc1N [PR-619] |  |  |  |  |  |  |  |  |  |  |  |  |  |  |  |  | 0.872 | 0.448 | 0.495 | −1.687 | Dose.FC.LYZ.NS ([1]; primary screen, dose 0.08 uM, FC relative to plate median): 0.100 log2 fold change; Dose.FC.LYZ.NS ([1]; primary screen, dose 0.40 uM, FC relative to plate median): 0.051 log2 fold change; Dose.FC.LYZ.NS ([1]; primary screen, dose 2.00 uM, FC relative to plate median): 0.057 log2 fold change; Dose.FC.LYZ.NS ([1]; primary screen, dose 10.00 uM, FC relative to plate median): −0.194 log2 fold change; Dose.FC.LYZ.S [2, 16]: 0.122 log2 fold change; Dose.FC.LYZ.S [2, 17]: 0.047 log2 fold change; Dose.FC.LYZ.S [2, 18]: 0.081 log2 fold change; Dose.FC.LYZ.S [2, 19]: −0.193 log2 fold change; Dose.FC.CTG [3, 16]: 0.054 log2 fold change; Z.CTG ([3]; dose 0.08 uM): 0.130; Dose.FC.CTG [3, 17]: 0.111 log2 fold change; Z.CTG ([3]; dose 0.40 uM): 0.266; Dose.FC.CTG [3, 18]: 0.022 log2 fold change; Z.CTG ([3]; dose 2.00 uM): 0.053; Dose.FC.CTG [3, 19]: −0.320 log2 fold change; Z.CTG ([3]; dose 10.00 uM): −0.764
5 | CCN(c1cc(-c2ccc(CN3CCOCC3)cc2)cc(C(=O)NCc2c(C)cc(C)[nH]c2=O)c1C)C1CCOCC1 [EPZ-6438] | 0.012 |  | −0.023 |  | 0.015 |  | 0.062 |  | 0.003 | −0.023 | −0.011 | 0.046 | 0.045 | 0.075 | −0.068 | 0.336 |  |  |  |  | Z.LYZ.NS [1, 12]: 0.108; Z.LYZ.NS [1, 13]: −0.203; Z.LYZ.NS [1, 14]: 0.130; Z.LYZ.NS [1, 15]: 0.538
6 | Cc1cc(Nc2cc(N3CCN(C)CC3)nc(Sc3ccc(NC(=O)C4CC4)cc3)n2)n[nH]1 [VX-680 (Tozasertib, MK-0457)] | −0.043 | −0.371 | −0.151 | −1.317 | −0.166 | −1.450 | −0.238 | −2.069 | −0.078 | −0.245 | −0.308 | −0.342 | −0.150 | −0.596 | −0.706 | −0.959 |  |  |  |  | Z.CTG (standard z score) ([3]; dose 0.08 uM): −0.359; Z.CTG (standard z score) ([3]; dose 0.40 uM): −1.425; Z.CTG (standard z score) ([3]; dose 2.00 uM): −1.686; Z.CTG (standard z score) ([3]; dose 10.00 uM): −2.291
